Earlier results as cited in US20080214562A1, “Chemical Compounds” (priority 2005, published 2008).

Test system: T-tropic HIV
Settings: patients that are dual tropic or where only the T-tropic form of the virus is present

For `c1cc(CN2CCCNCCNCCCNCC2)ccc1CN1CCCNCCNCCCNCC1` [AMD-3100], the “T-tropic HIV viral load” value is listed as “significantly reduce”.
